The results in this text go back to publication PMC7949139, “The molecular basis of OH-PCB estrogen receptor activation” (The Journal of Biological Chemistry, 2021).

By Kd is commonly meant the constant that tells how readily two partners part at equilibrium. The EC50 is the concentration needed to bring the measured effect to its halfway point. For orientation: Ki means the equilibrium dissociation constant of an inhibitor or competing ligand from its target.

The target in one assay is T1, SULT1E1 (Homo sapiens, UniProt P49888).
T1 construct: E. coli codon-optimized SULT1E1 coding region inserted into the PreScission Protease cleavage site; His/GST/MBP triple tag (N, cleaved yes); made in house; host or cells: E. coli BL21(DE3)
T1 sequence (P49888 1-294): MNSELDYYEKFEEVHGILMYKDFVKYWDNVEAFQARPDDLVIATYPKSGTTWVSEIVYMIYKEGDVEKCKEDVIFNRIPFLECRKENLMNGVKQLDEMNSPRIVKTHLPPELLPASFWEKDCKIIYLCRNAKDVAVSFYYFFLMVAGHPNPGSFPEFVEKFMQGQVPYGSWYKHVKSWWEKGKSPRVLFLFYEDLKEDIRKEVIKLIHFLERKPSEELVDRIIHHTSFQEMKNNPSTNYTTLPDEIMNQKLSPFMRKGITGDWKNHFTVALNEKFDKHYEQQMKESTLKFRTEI
As to the kind of experiment: Equilibrium binding studies (SULT1E1 intrinsic fluorescence). The note with it: for Kd: pH 7.4, 25 °C, spread = one SD. How it is done:
The binding of inhibitors to WT and mutant SULT1E1 was monitored via ligand-induced changes in the intrinsic fluorescence of the enzyme (λex= 290 nm, λem= 340 nm) ([4]). […] C. Titrations were performed in triplicate and the averaged data were least-squares fit to the following quadratic, single-site binding model: Io − ΔI∙(([L]+Etot + Kd) − [([L]+Etot + Kd)^2 − (4∙[L]∙Etot)]^1/2)/2∙Etot, where Io and ΔI represent fluorescent intensity at zero and infinite [L].

Assay [1] deals with estrogen receptor (ER) activation in Ishikawa cells expressing F75A/F80A SULT1E1. As to the kind of experiment: cells. Conditions: Homo sapiens, Ishikawa; F75A/F80A cell line; OH-PCB titration at 10 nM E2 (footnote a); NE = No Effect; read-out: Ligand EC50, ER activation. Format: cell-based, human. How it is done:
pcDNA 3.1 constructs harboring either the SULT1E1 WT or double mutant (F75A/F80A) coding regions were generated using Gibson Assembly ([74]). The vectors were linearized using BGIII. Ishikawa cells were grown at 37 °C ± 2 deg. C in growth medium (MEM media containing 10% v/v FBS). At confluence, the cells were washed (3×) with PBS media before coating with an Opti-MEM solution containing a linearized construct (50 ng μg^−1) and lipofectamine (2.5 units ml^−1). After 24 h at 37 °C ± 2 deg. C, cells were washed (3×) with PBS before adding growth medium containing neomycin (400 μg ml^−1) to select transfectants. Selective growth medium was replenished every 48 h until single colonies could be isolated (∼3–6 weeks). Single colonies were transferred using trypsin digest (0.05%) to 12-well plates and grown at 37 °C ± 2 deg. C to confluence for further experimentation and storage.
Transfected Ishikawa cells were grown at 37 °C ± 2 deg. C to 60 to 70% confluency in MEM containing 10% v/v FBS. Cells were then transferred to 96-well tissue culture plates and grown at 37 °C ± 2 deg. C to 80% confluency in MEM containing 10% v/v charcoal filtered FBS. The plate was then washed with PBS and grown at 37 °C ± 2 deg. C for 24 h in MEM without FBS. Estradiol (0–3.0 μM) and OH-PCB (0–1.0 μM) solubilized in neat DMSO were added and cells were incubated at 37 °C ± 2 deg. C for 5 days. The final concentrations of DMSO were ≤0.10%. Cells were then washed twice with PBS before adding pNpp (5.0 mM) in PBS ([75]). Following incubation with pNpp for 3 h at 25 °C ± 2 deg. C, wells were read at 405 nm using a Synergy HT BioTek Plate Reader.

In assay [2] the target is T2, spin-labeled SULT1E1, spin label attached at Cys residue 233 (C69S/N233C) (Homo sapiens, UniProt P49888, C69S/N233C).
T2 construct: E. coli codon-optimized SULT1E1 coding region inserted into the PreScission Protease cleavage site; His/GST/MBP triple tag (N, cleaved yes); made in house; host or cells: E. coli BL21(DE3)
T2 sequence (P49888 1-294 C69S/N233C): T1 sequence (P49888 1-294) with C69S, N233C
As to the kind of experiment: Initial-rate studies, spin-labeled construct (label at Cys 233). Conditions: spin label at Cys 233; parentheses = one SD; read-out: Ki OH-PCB1. Format: biochemical. As for the experimental part: Spin labels were attached to the SULT1E1 scaffold at Cys residues that were site-specifically incorporated via PCR-based mutagenesis. Prior to creating spin-label attachment constructs, reactive Cys was removed from the native scaffold. Only one of the four native SULT1E1 Cys (i.e., C69) reacts with DTNB ([39]), and mutagenic conversion of C69 to ser produced a stable, fully active non-DTNB-reactive scaffold. Five individual cys-attachment constructs were prepared from the C69S mutant (G16C, K25C, N150C, Q163C, and N233C). Mutants were labeled (see, Experimental procedures) and the initial rate parameters (kcat, Km and Ki) of each spin-labeled mutant were determined (see, Experimental procedures, Initial-Rate studies) to evaluate whether the catalytic integrity of the constructs had been compromised by the insertions and/or spin label attachments. […]
Labels (N-cyclohexylmale-imide or 3-maleimido-PROXYL) were added in 20-fold excess over reactive cysteine to a solution containing SULT1E1 construct (50 μM active sites), 0.50 mM PAP, and 50 mM KPO4 (pH 7.4), 25 °C ± 2 deg. […] The reactions were monitored by using DTNB to measure unreacted cysteine and were considered complete when >98% of the cysteine had reacted (∼3 h).
C. Reaction progress was monitored via the fluorescence change associated with 1-HP sulfonation (λex = 325 nm, λem = 370 nm ([51], [52])). […]

Residue numbers refer to the chain shown, from its start. Where two headings read alike, the source gives them in different places.

For the compound `Oc1ccc(-c2c(Cl)cccc2Cl)cc1` [OH-PCB1, 4ʹ-OH-2,6-dichlorobiphenol], the dissociation constant Kd is 62 nM on SULT1E1 (E2 4.0 μM (higher partner concentration), PAP 300 μM, read-out: Kd, ligand binding to enzyme species E⋅PAP⋅E2); 66 nM at SULT1E1 (E2 4.0 μM, no PAP, read-out: Kd, ligand binding to enzyme species E⋅E2); 780 nM on SULT1E1 (PAP 300 μM, read-out: Kd, ligand binding to enzyme species E⋅PAP); 750 nM on SULT1E1 (free enzyme E, read-out: Kd, ligand binding to enzyme species E). In addition, the “fold tighter binding in the presence of the partner ligand (OH-PCB1/E2 interaction)” value on SULT1E1 (OH-PCB1: E⋅E2 versus E, E2: E⋅PAP⋅OH-PCB1 versus E⋅PAP) was approximately 12 fold. For the same compound, the half-maximal effective concentration (EC50) in assay [1] was more than 1000 nM. Besides, the Ki in assay [2] is 58 nM.
